System: pro-fibrotic gene expression (COL1A1) in LX-2 cells
Experiment: qRT-PCR of pro-fibrotic gene expression in LX-2 cells
Settings: 500 nM, 16 hr, equimolar doses, absence or presence of TGFβ1 (5 ng/ml), compared with JQ1

Compound | inhibitory effects on the expression of a wide range of pro-fibrotic genes
COc1cc2c(cc1-c1c(C)noc1C)ncc1[nH]c(=O)n([C@H](C)c3ccccn3)c12 [I-BET-151] | comparable inhibitory effects to JQ1
COc1ccccc1S(=O)(=O)Nc1ccc2c(c1)CN(C)C(=O)N2 [PFI-1] | comparable inhibitory effects to JQ1

Source: patent publication US20180325914A1, “INCREASING STORAGE OF VITAMIN A, VITAMIN D AND/OR LIPIDS” (Salk Institute for Biological Studies, priority 2014, published 2018)
